Values of other authors in patent US8945508B2, “Dendrimer compositions and methods of synthesis” (priority 2009, dated 2015).

Experiments:
[1] = more cytotoxic than IRINOTECAN

SMILES	cytotoxicity relative to IRINOTECAN [1]	in vivo activity in solid tumor models (solid tumors)
CC[C@@]1(O)C(=O)OCc2c1cc1n(c2=O)Cc2cc3cc(O)ccc3nc2-1 [SN-38, 10-hydroxycamptothecin]	1000 fold	–
N.N.[Cl][Pt][Cl] [cisplatin]	–	no effect
